Experimental data from patent US20210196714A1, “COMPOSITIONS AND METHODS FOR TREATING DISORDERS CHARACTERIZED WITH ABERRANT RAS/MAPK SIGNALING” (Duke University, priority 2018, published 2021).
Entries after “also recorded” stand apart in the source; their conditions may differ.

Tests used:
[1] = test system: rap1-CRISPR embryos; test: Jaw defect (MK-CH distance) in rap1-CRISPR embryos; format: in vivo, zebrafish; details: rap1 F0 CRISPR mutant, 100 nM, 5 dpf
Method: FIG. 4: Compound 8 ameliorates the CE and jaw defects caused by loss of rap/and kdm6a. (a) gRNA targeting both zebrafish rap1a and rap1b were injected into embryos at the 1-cell stage with Cas9 protein. Larvae were incubated with compound 8 (100 nM) at the 8-cell stage and scored for micrognathia. 5 dpf larvae were stained with Alcian blue to assess the layout of the jaw cartilage. In comparison to control embryos (top), rap1-CRISPR embryos have smaller jaws. […] (b) Quantitative measurement of the distance between MK and CH cartilages. (c) Larvae were scored for CE (n>30 for each concentration). (d) 5 dpf embryos were stained with Alcian blue to assess the layout of jaw cartilage. […] (e) Quantitative measurement of the distance between MK and CH cartilages. *p<0.05; ***p<0.001. […]
For convergence and extension (CE) phenotyping, embryos were scored as described (see, Leitch, C. C. et al. Nat Genet 40, 443-8 (2008)) at the 8-10 somite stage, and images were captured using an AZ100 microscope and NIS Elements software (Nikon). […] The distance between Meckel's (MK) and ceratohyal (CH) cartilages was measured on ventral bright field images with Image J (NIH). […] Fluorescence signal on embryo heads was imaged with the Nikon AZ100 microscope and DS-Qi1MC digital camera using […] Z-stacks to generate extended depth of focus images. Cell numbers were quantified using the ImageJ ICTN plugin (NIH). […]

[2] = test system: zebrafish kmt2d morphants; test: Rescue of convergent-extension (CE) phenotype in kmt2d morphants; format: in vivo; details: 100 nM; for rescue of CE defects, repeated experiments: repeated four times by two investigators; for proportion of embryos showing CE defects vs vehicle (DMSO): primary screen, kmt2d-MO, 8-10 somite stage
Method: FIG. 1: In vivo screen using BRAF/MEK/ERK inhibitors. (a) Flow chart of the experimental design. We started the screening with 29 compounds (27 active BRAF/MEK/ERK inhibitors, and 2 negative controls). 26 compounds passed the solubility test and 24 of those passed the toxicity test. For the primary screen, 24 compounds were assessed for their ability to rescue the convergent-extension (CE) phenotype of zebrafish kmt2d morphants, followed by rescue tests of additional phenotypes (jaw and brain) within the kmt2d morphant, or CE of additional genetic KS models. (b) Toxicity results. Twenty embryos at the 8-cell stage were incubated in egg water containing 100 nM, 1 μM, and 10 μM of the 26 compounds. After 24 hours, larvae were scored for toxicity. Black bar: death; grey bar: abnormal morphology; white bar: nontoxic. (c) Embryos were injected with kmt2d-MO at the 2-4 cell stage and soaked in egg water containing 100 nM of each compound at the 8-cell stage. After 24 hours, larvae were scored for CE. […] The efficacy of each compound was determined by a chi-square test in which Class I and Class II were considered together. Note that the compounds were tested in two groups (compounds 1-19 and compounds 20-29), each with its own set of controls.
This library was screened against validated transient suppression reagent for kmt2d. Experiments injected kmt2d-morpholino (MO) into one- to two-cell-stage embryos and soaked them in egg water containing 100 nM of each compound approximately one hour after injection (eight-cell stage).
Morpholinos (MO) were obtained from Gene Tools (Gene Tools, LLC, Philomath, Oreg., USA) and have been described previously (see, Bogershausen, N. et al. J Clin Invest 125, 3585-99 (2015)); kmt2d-MO: 5′-[…]-3′(SEQ ID NO: 1) (5 ng); kdm6a-MO: 5′-[…] (SEQ ID NO: 2) (10 ng). kmt2d-MO and kdm6a-MO was injected into wild type (WT) Ekkwill (EK) zebrafish embryos obtained from natural matings at the 1-4 cell stage. CRISPR target sequences (rap1a: 5′-[…]-3′ (SEQ ID NO: 3) [120 pg], rap1b: 5′-[…]-3′ (SEQ ID NO: 4) [120 pg] (see, Bogershausen, N. et al. J Clin Invest 125, 3585-99 (2015)), and kmt2d: 5′-[…] (SEQ ID NO: 5) [50 pg]) were identified by crispr.mit.edu and cloned into pT7-gRNA (Addgene, Cambridge, USA) following the protocol described in http://www.addgene.org/crispr/Chen/. Guide (g)RNAs were synthesized using the T7 MEGAshortscript kit (ThermoFisher Scientific). […]
For convergence and extension (CE) phenotyping, embryos were scored as described (see, Leitch, C. C. et al. Nat Genet 40, 443-8 (2008)) at the 8-10 somite stage, and images were captured using an AZ100 microscope and NIS Elements software (Nikon). […] The distance between Meckel's (MK) and ceratohyal (CH) cartilages was measured on ventral bright field images with Image J (NIH). […]

CC[C@@H](CO)Nc1ncc(C)c(-c2c[nH]c(C(=O)N[C@H](CO)c3cccc(Cl)c3)c2)n1 [Compound 2, N-((S)-1-(3-chlorophenyl)-2-hydroxyethyl)-4-(2-(((S)-1-hydroxybutan-2-yl)amino)-5-methylpyrimidin-4-yl)-1H-pyrrole-2-carboxamide]
jaw length / MK-CH distance [1]: can be ameliorated; also recorded: restored significantly the jaw length of morphants and mutants to nearly wild type levels
rescue of CE defects, repeated experiments [2]: rescue CE defects; also recorded: consistent and significant rescue
proportion of embryos showing CE defects vs vehicle (DMSO) [2]: decreased the proportion of embryos showing CE defects

CC(C)c1nc(-c2cccc(NS(=O)(=O)c3c(F)cccc3F)c2F)c(-c2ccnc(N)n2)s1 [Compound 8, desmethyl-Dabrafenib]
jaw length / MK-CH distance [1]: can be ameliorated; also recorded: restored significantly the jaw length of morphants and mutants to nearly wild type levels
rescue of CE defects, repeated experiments [2]: rescue CE defects; also recorded: consistent and significant rescue
proportion of embryos showing CE defects vs vehicle (DMSO) [2]: decreased the proportion of embryos showing CE defects
